From PMC3195361 (Bioorganic & medicinal chemistry, 2011)
Each block holds one compound with its values, some of them ahead of it.

Legend:
H2009 xenograft = assay type: in vivo, NOD/SCID mice; details: 5 mg/kg based on paclitaxel; for tumor growth rate compared to saline: i.v. tail vein, days 18, 21, 24, 27, 30
H460 cells = test: Cell viability assay; assay type: cell-based, Human; details: H460.1 column; 10 min exposure followed by 120 h recovery in media
H2009 cells [1] = test: Cell cycle analysis by PI DNA staining and flow cytometry; assay type: cell-based, Human; details: for effect on cell cycle: H2009 cells
[2] = 5 mg/kg based on paclitaxel, 5 injections; data not shown
H2009 cells [3] = test: Cell viability assay; assay type: cell-based, Human; details: for IC50: 10 min exposure followed by 120 h recovery in media
integrin αvβ6 = details: read-out: half-maximal binding affinity; tetramerized H2009.1 peptide; cited from earlier work
[4] = Solubility of the peptide-paclitaxel conjugates; assay type: physicochemical; details: cold water; white powder
[5] = PBS pH 7.4, 37° C, after 96 hours
[6] = test system: H2009 cells (αvβ6-positive); assay type: binding, Human; details: fluorescein-labeled conjugate, 1 hour, flow cytometry
[7] = 1 μM paclitaxel column, time not printed in table (24 h elsewhere in the source)

IC50 (H460 cells): 23.6 ± 7.4 nM
animal weights [2]: remained steady
IC50 (H2009 cells [3]): 14.8 ± 3.3 nM
Structure (SMILES): CC(=O)O[C@H]1C(=O)[C@@]2(C)[C@H]([C@H](OC(=O)c3ccccc3)[C@]3(O)C[C@H](OC(=O)[C@H](O)[C@@H](NC(=O)c4ccccc4)c4ccccc4)C(C)=C1C3(C)C)[C@]1(OC(C)=O)CO[C@@H]1C[C@@H]2O [Paclitaxel, reference compound]
tumor growth rate compared to saline (H2009 xenograft): slowed
G2/M (H2009 cells [1]; [7]): 73.5
Polyploid (H2009 cells [1]; [7]): 14
S (H2009 cells [1]; [7]): 4.1
effect on cell cycle (H2009 cells [1]; 1 μM, at 24 h): G2/M cell cycle arrest was observed
effect on cell viability within the first 48 h (H2009 cells [3]; 1 μM for 10 min, then recovery): rapid reduction of cell viability

Structure (SMILES): CC(C)C[C@H](NC(=O)[C@H](CCC(N)=O)NC(=O)[C@H](CCCNC(=N)N)NC(=O)[C@H](CC(C)C)NC(=O)[C@@H](NC(=O)[C@H](C)NC(=O)[C@H](CC(C)C)NC(=O)[C@H](CC(=O)O)NC(=O)CNC(=O)[C@@H](N)CCCNC(=N)N)[C@@H](C)O)C(=O)NCCOCCOCCOCCOCCOCCOCCOCCOCCOCCOCCOCCOCCC(=O)N[C@@H](CSC1CC(=O)N(CCC(=O)NCCCC[C@H](NC(=O)CCN2C(=O)CC(SC[C@H](NC(=O)CCOCCOCCOCCOCCOCCOCCOCCOCCOCCOCCOCCOCCNC(=O)[C@H](CC(C)C)NC(=O)[C@H](CCC(N)=O)NC(=O)[C@H](CCCNC(=N)N)NC(=O)[C@H](CC(C)C)NC(=O)[C@@H](NC(=O)[C@H](C)NC(=O)[C@H](CC(C)C)NC(=O)[C@H](CC(=O)O)NC(=O)CNC(=O)[C@@H](N)CCCNC(=N)N)[C@@H](C)O)C(N)=O)C2=O)C(=O)NCCCC[C@H](NC(=O)[C@H](CCCCNC(=O)CCN2C(=O)CC(SC[C@H](NC(=O)CCOCCOCCOCCOCCOCCOCCOCCOCCOCCOCCOCCOCCNC(=O)[C@H](CC(C)C)NC(=O)[C@H](CCC(N)=O)NC(=O)[C@H](CCCNC(=N)N)NC(=O)[C@H](CC(C)C)NC(=O)[C@@H](NC(=O)[C@H](C)NC(=O)[C@H](CC(C)C)NC(=O)[C@H](CC(=O)O)NC(=O)CNC(=O)[C@@H](N)CCCNC(=N)N)[C@@H](C)O)C(N)=O)C2=O)NC(=O)CCN2C(=O)CC(SC[C@H](NC(=O)CCOCCOCCOCCOCCOCCOCCOCCOCCOCCOCCOCCOCCNC(=O)[C@H](CC(C)C)NC(=O)[C@H](CCC(N)=O)NC(=O)[C@H](CCCNC(=N)N)NC(=O)[C@H](CC(C)C)NC(=O)[C@@H](NC(=O)[C@H](C)NC(=O)[C@H](CC(C)C)NC(=O)[C@H](CC(=O)O)NC(=O)CNC(=O)[C@@H](N)CCCNC(=N)N)[C@@H](C)O)C(N)=O)C2=O)C(=O)N[C@@H](CS)C(=O)NCCC(=O)O)C1=O)C(N)=O (stereo partly drawn) [compound 2]
EC50 (integrin αvβ6): 0.05 nM

Structure (SMILES): CC(=O)O[C@H]1C(=O)[C@@]2(C)[C@H]([C@H](OC(=O)c3ccccc3)[C@]3(O)C[C@H](OC(=O)[C@H](OC(=O)CCN4C(=O)CC(SC[C@H](NC(=O)[C@H](CCCCNC(=O)[C@H](CCCCNC(=O)CCN5C(=O)CC(SC[C@H](NC(=O)CCOCCOCCOCCOCCOCCOCCOCCOCCOCCOCCOCCOCCNC(=O)[C@H](CC(C)C)NC(=O)[C@H](CCC(N)=O)NC(=O)[C@H](CCCNC(=N)N)NC(=O)[C@H](CC(C)C)NC(=O)[C@@H](NC(=O)[C@H](C)NC(=O)[C@H](CC(C)C)NC(=O)[C@H](CC(=O)O)NC(=O)CNC(=O)[C@@H](N)CCCNC(=N)N)[C@@H](C)O)C(N)=O)C5=O)NC(=O)CCN5C(=O)CC(SC[C@H](NC(=O)CCOCCOCCOCCOCCOCCOCCOCCOCCOCCOCCOCCOCCNC(=O)[C@H](CC(C)C)NC(=O)[C@H](CCC(N)=O)NC(=O)[C@H](CCCNC(=N)N)NC(=O)[C@H](CC(C)C)NC(=O)[C@@H](NC(=O)[C@H](C)NC(=O)[C@H](CC(C)C)NC(=O)[C@H](CC(=O)O)NC(=O)CNC(=O)[C@@H](N)CCCNC(=N)N)[C@@H](C)O)C(N)=O)C5=O)NC(=O)[C@H](CCCCNC(=O)CCN5C(=O)CC(SC[C@H](NC(=O)CCOCCOCCOCCOCCOCCOCCOCCOCCOCCOCCOCCOCCNC(=O)[C@H](CC(C)C)NC(=O)[C@H](CCC(N)=O)NC(=O)[C@H](CCCNC(=N)N)NC(=O)[C@H](CC(C)C)NC(=O)[C@@H](NC(=O)[C@H](C)NC(=O)[C@H](CC(C)C)NC(=O)[C@H](CC(=O)O)NC(=O)CNC(=O)[C@@H](N)CCCNC(=N)N)[C@@H](C)O)C(N)=O)C5=O)NC(=O)CCN5C(=O)CC(SC[C@H](NC(=O)CCOCCOCCOCCOCCOCCOCCOCCOCCOCCOCCOCCOCCNC(=O)[C@H](CC(C)C)NC(=O)[C@H](CCC(N)=O)NC(=O)[C@H](CCCNC(=N)N)NC(=O)[C@H](CC(C)C)NC(=O)[C@@H](NC(=O)[C@H](C)NC(=O)[C@H](CC(C)C)NC(=O)[C@H](CC(=O)O)NC(=O)CNC(=O)[C@@H](N)CCCNC(=N)N)[C@@H](C)O)C(N)=O)C5=O)C(=O)NCCC(=O)O)C4=O)[C@@H](NC(=O)c4ccccc4)c4ccccc4)C(C)=C1C3(C)C)[C@]1(OC(C)=O)CO[C@@H]1C[C@@H]2O (stereo partly drawn) [compound 3]
delay of effect on tumor growth relative to free drug (H2009 xenograft): 7 days
tumor growth rate compared to saline (H2009 xenograft): reduced the rate of tumor growth compared to saline
solubility [4]: soluble in cold water
IC50 (H460 cells): Not Reached ^b
paclitaxel released [5]: minimal paclitaxel was released
G1 (H2009 cells [1]; 1 μM, 24 h): 44.9
G2/M (H2009 cells [1]; 1 μM, 24 h): 39.0
Polyploid (H2009 cells [1]; 1 μM, 24 h): 8.0
S (H2009 cells [1]; 1 μM, 24 h): 8.1
G1 (H2009 cells [1]; 1 μM, 48 h): 11.4
G2/M (H2009 cells [1]; 1 μM, 48 h): 57.1
Polyploid (H2009 cells [1]; 1 μM, 48 h): 26.9
S (H2009 cells [1]; 1 μM, 48 h): 4.5
increase in number of cells in G2/M (H2009 cells [1]; 1 μM, at 48 h): ~ 2 fold
increase in polyploid cells (H2009 cells [1]; 1 μM, at 48 h): 3 fold
G1 (H2009 cells [1]; 5 μM, 24 h): 35.8
G2/M (H2009 cells [1]; 5 μM, 24 h): 45.8
Polyploid (H2009 cells [1]; 5 μM, 24 h): 11.7
S (H2009 cells [1]; 5 μM, 24 h): 6.7
G1 (H2009 cells [1]; 5 μM, 48 h): 23.9
G2/M (H2009 cells [1]; 5 μM, 48 h): 53.9
Polyploid (H2009 cells [1]; 5 μM, 48 h): 23.6
S (H2009 cells [1]; 5 μM, 48 h): 8.5
effect on cell cycle (H2009 cells [1]; 1 μM, at 24 h): the cell cycle remains unperturbed
more G2/M arrest at increased conjugate concentration (H2009 cells [1]; increased concentration (5 μM in Table II), at 24 h): Approximately 50%
increase of paclitaxel release with esterase versus PBS (porcine esterase; esterase in PBS vs PBS): 7 fold
paclitaxel released (porcine esterase; porcine esterase (18u/mL) in PBS, 37° C, by 48 h): 34.1%
time at which reduction of cell viability begins (H2009 cells [3]; 1 μM for 10 min, then recovery): 72 h

Structure (SMILES): CC(=O)O[C@H]1C(=O)[C@@]2(C)[C@H]([C@H](OC(=O)c3ccccc3)[C@]3(O)C[C@H](OC(=O)[C@H](OC(=O)CCN4C(=O)CC(SC[C@H](NC(=O)[C@H](CCCCNC(=O)[C@H](CCCCNC(=O)CCN5C(=O)CC(SC[C@H](NC(=O)CCOCCOCCOCCOCCOCCOCCOCCOCCOCCOCCOCCOCCNC(=O)[C@H](CCCNC(=N)N)NC(=O)[C@H](CC(C)C)NC(=O)[C@@H](NC(=O)CNC(=O)[C@H](CCC(N)=O)NC(=O)[C@H](CC(C)C)NC(=O)[C@H](CCCNC(=N)N)NC(=O)[C@H](CC(C)C)NC(=O)[C@H](C)NC(=O)[C@@H](N)CC(=O)O)[C@@H](C)O)C(N)=O)C5=O)NC(=O)CCN5C(=O)CC(SC[C@H](NC(=O)CCOCCOCCOCCOCCOCCOCCOCCOCCOCCOCCOCCOCCNC(=O)[C@H](CCCNC(=N)N)NC(=O)[C@H](CC(C)C)NC(=O)[C@@H](NC(=O)CNC(=O)[C@H](CCC(N)=O)NC(=O)[C@H](CC(C)C)NC(=O)[C@H](CCCNC(=N)N)NC(=O)[C@H](CC(C)C)NC(=O)[C@H](C)NC(=O)[C@@H](N)CC(=O)O)[C@@H](C)O)C(N)=O)C5=O)NC(=O)[C@H](CCCCNC(=O)CCN5C(=O)CC(SC[C@H](NC(=O)CCOCCOCCOCCOCCOCCOCCOCCOCCOCCOCCOCCOCCNC(=O)[C@H](CCCNC(=N)N)NC(=O)[C@H](CC(C)C)NC(=O)[C@@H](NC(=O)CNC(=O)[C@H](CCC(N)=O)NC(=O)[C@H](CC(C)C)NC(=O)[C@H](CCCNC(=N)N)NC(=O)[C@H](CC(C)C)NC(=O)[C@H](C)NC(=O)[C@@H](N)CC(=O)O)[C@@H](C)O)C(N)=O)C5=O)NC(=O)CCN5C(=O)CC(SC[C@H](NC(=O)CCOCCOCCOCCOCCOCCOCCOCCOCCOCCOCCOCCOCCNC(=O)[C@H](CCCNC(=N)N)NC(=O)[C@H](CC(C)C)NC(=O)[C@@H](NC(=O)CNC(=O)[C@H](CCC(N)=O)NC(=O)[C@H](CC(C)C)NC(=O)[C@H](CCCNC(=N)N)NC(=O)[C@H](CC(C)C)NC(=O)[C@H](C)NC(=O)[C@@H](N)CC(=O)O)[C@@H](C)O)C(N)=O)C5=O)C(=O)NCCC(=O)O)C4=O)[C@@H](NC(=O)c4ccccc4)c4ccccc4)C(C)=C1C3(C)C)[C@]1(OC(C)=O)CO[C@@H]1C[C@@H]2O (stereo partly drawn) [scrambled peptide-paclitaxel conjugate]
solubility [4]: soluble in cold water
IC50 (H460 cells): Not Reached ^b
binding to H2009 cells [6]: no binding was observed
IC50 (H2009 cells [3]): Not Reached ^b
